The record followed here is patent US12214036B2, “Combination therapy comprising AXL/MER and PD-1/PD-L1 inhibitors” (Incyte Corporation, priority 2020, dated 2025).

The test system of one experiment is 179 kinases (c-Met). Kind of experiment: Comprehensive kinase study (179 kinases). In kind it is biochemical. The conditions noted are these: evaluated at 200 nM. On the procedure:
Compound 1 was also evaluated at 200 nM in a comprehensive kinase study, which included 179 kinases. […] The mode of inhibition with respect to ATP concentration was evaluated using a MER kinase assay.

Another experiment has as its system 4T1 tumor. Kind of experiment: Tumor models in immunodeficient mice. In kind it is in vivo, athymic nude mice. The following applies: immunodeficient mice bearing the same tumors, FIG. 7C. From the text: (§1) MBT-2 cells were obtained from the Japanese Collection of Research Bioresources Cell Bank and were maintained in DMEM supplemented with 10% FBS. MC38 cells were obtained from the NCI. 4T1 cells were obtained from ATCC and maintained in RPMI media supplemented with 10% FBS. For MBT-2 experiments, 5×10^5 MBT-2 cells were inoculated subcutaneously into the right hind flank of 6- to 8-week-old C3H mice or athymic nude mice (Charles River Laboratories, Wilmington, Mass.). For MC38 studies, 12-week old female C57BL/6 mice were inoculated with brei of MC38 tumors (in-vivo passage 6) into the right hind flank. For 4T1 studies, 7.5×10^5 4 T1 cells were inoculated subcutaneously into the right hind flank of 6- to 8-week-old female BALB/c mice or athymic nude mice (Charles River Laboratories). Mice were randomized by tumor volume with n=10-12 per group. […] Mice were monitored for tumor growth and overt tolerability over the course of the experiment. […] Tumor volume was calculated using the formula (L×W^2)/2, where L and W refer to the length and width dimensions, respectively. Tumor growth inhibition (TGI) was calculated using the formula (1−(VT/VC))×100, where VT is the tumor volume of the treatment group on the last day of treatment, and VC is the tumor volume of the control group on the last day of treatment. […]

The subject of the next experiment is CTG-1861 tumors. In words: PDX model CTG-1861 (gastrointestinal stromal tumor). Type of experiment: in vivo. The conditions noted are these: athymic nude mice.
Text: as §1, with “Laboratories).” for “Laboratories). Mice were randomized by tumor volume with n=10-12 per group.”
The activity of Compound 1 in sarcoma PDX models was evaluated as described in Example H for PDX models. […] Three mice per group were analyzed. […]

In the case of `CC(C)C(=O)N1CCC(c2cc(-c3ccc(NC(=O)c4cn(C(C)C)c(=O)n(-c5ccccn5)c4=O)cc3)c3c(N)ncnn23)CC1` [Compound 1, N-(4-(4-Amino-7-(1-isobutyrylpiperidin-4-yl)pyrrolo[1,2-f][1,2,4]triazin-5-yl)phenyl)-1-isopropyl-2,4-dioxo-3-(pyridin-2-yl)-1,2,3,4-tetrahydropyrimidine-5-carboxamide], in the experiment on 179 kinases (c-Met), the “inhibition of other kinases” value was “did not inhibit any other kinases”; the “selectivity for AXL and MER compared to c-Met” value was “approximately 60 fold”. Moreover, in the experiment on 4T1 tumor, the “antitumor activity in immunodeficient mice” value is recorded as “no activity”. In the experiment with CTG-1861 tumors, the “TGI (%)” value was found to be 74%.
